From patent publication US5373040A, “Amorphous solid modification of 2,2',2"-nitrilo[triethyl-tris-(3,3',5,5'-tetra-tert-butyl-1,1'-biphenyl- 2,2'-diyl)phosphite]” (Ciba-Geigy Corporation, priority 1993, dated 1994)

How the values were obtained:
[1] = Apparent bulk density (ASTM D-1895); format: physicochemical
Protocol: The apparent bulk density of the solids is measured according to the method of ASTM D-1895 (79). A higher apparent bulk density allows for a greater mass per unit volume which affords advantages in packaging of the solid product, such as lower costs for the packaging material, less storage space is required, etc.

[2] = Process stabilization of polypropylene at 525° F.: melt flow rate (ASTM D1238); conditions: in the presence of a representative phenolic antioxidant; versus prior art compound of U.S. Pat. No. 4,318,845
Protocol: (§1) The test additives are incorporated into the polypropylene by dry blending or, when the additive is a liquid, using a minimum amount of methylene chloride solvent. The solvent is then removed by evaporation under reduced pressure.
After each of the first, third and fifth extrusions, the melt flow rate (in grams/10 minutes) is determined by ASTM method D1238 on the pellets obtained from the extruder.

[3] = Process stabilization of polypropylene: yellowness index of plaques (ASTM D1925); conditions: in the presence of a representative phenolic antioxidant; versus prior art compound of U.S. Pat. No. 4,318,845
Source text: as §1

[4] = Stabilization of unsaturated elastomer: time until onset of crosslinking; conditions: 0.5% by weight, 150° C., 60 rpm; versus unstabilized SBR
Protocol: The instant compound of Example 1 is evaluated in an emulsion of SBR (cold polymerized, 23.5% styrene with a 52 Mooney Viscosity). The unstabilized SBR (60 g) is added to the mixing chamber of a Brabender Plasticorder set at 150° C. and 60 rpm. After 30 seconds, 0.5% by weight of the compound of instant Example 1 is added to the chamber. Stability of the SBR is determined by the time until onset of crosslinking of the rubber as indicated by an increase in the torque curve.

[5] = Stabilization of polyol: discoloration or scorch of foam; conditions: 1000 ppm plus BHT 2000 ppm and NAUGARD 445 2000 ppm; versus control stabilizer package
Protocol: A premix of 10 g of water, 0.25 g of triethylenetetramine, 2 g of L-5740 (silicone surfactant, Union Carbide) and 20 g of ANTIBLAZE® AB-100 (chlorinated aromatic flame retardant, Albright & Wilson) is added to 200 g of 3000 molecular weight polyether polyol containing the stabilizer package listed below*. The mixture is stirred for five minutes with a high speed Lightning Mixer. Then 0.4 g of stannous octoate is added and the mixture is stirred for 5 seconds. Finally, 125 g of toluene diisocyanate ([…]) is added. The mixture is stirred for 7 seconds at high speed mixing and is then poured into a 10"×10"×5" (25.4 cm×25.4 cm×12.7 cm) cardboard box. The foam is allowed to rise completely. After standing 5 minutes, the box is removed and the sample cured in a microwave over for five minutes at 50% power. The foam is then immediately air over cured at 125° C. for three minutes. The foams are then cut in half for visual assessment of discoloration or scorch.
Control is 2,6-di-tert-butyl-4-methylphenol (BHT) 2000 ppm; and NAUGARD® 445 (diphenylamine antioxidant, Uniroyal) 2000 ppm.
Instant package is the above plus 1000 ppm of the compound of Example 1.

[6] = Stabilization of polycarbonate: yellowness index; conditions: 0.08 weight percent plus 0.3 weight percent TINUVIN 329; versus UV absorber alone
Protocol: Additive free bisphenol A polycarbonate (LEXAN® 141-111N, General Electric) is dried and blended with 0.3 weight percent of a benzotriazole UV absorber TINUVIN® 329, Ciba-Geigy) and 0.08 weight percent of instant compound of Example 1. The mixture is extruded and pelletized at 550° F. (288° C.) on a 1" (2.54 cm) single screw extruder. Injection molded plaques (2"×2"×125 mil; 5.08 cm×5.08 cm×3.175 mm) are prepared in a BOY 30M injection molder at 560° F. (293° C.) with a mold temperature of 150° C. The resulting plaques are measured for yellowness index (YI) using ASTM D 1925-70.

[7] = Stabilization of poly(butylene terephthalate): intrinsic viscosity; conditions: 0.3% by weight; second pass extrudate and injection molded plaques; versus PBT containing no stabilizer
Protocol: Poly(butylene terephthalate), PBT (RYNITE® 9160, DuPont) is tumble blended with 0.3% by weight of the compound of instant Example 1. The polymer is then extruded and pelletized at 260° C. A portion of the collected pellets are reextruded under the same conditions for a second pass. The remainder from the first extrusion is injection molded into 2"×2"×125 mil (5.08 cm×5.08 cm×3.175 mm) plaques at 540° F. (282° C.) with a 100° C. mold temperature in a BOY 30M molder. Intrinsic viscosities of the second pass extrudate and the injection molded plaques are determined.

[8] = Stabilization of 6,6-nylon: yellowness index; conditions: 0.5% by weight; versus unstabilized control plaques
Protocol: 6,6-Nylon (ZYTEL® 101, DuPont) is thoroughly dried in a vacuum oven and tumble blended with 0.5% by weight of the compound of instant Example 1. The polyamide is extruded on a 1" (2.54 cm) MPM extruder at 575° F. (302° C.). The collected pellets are injection molder at 575° F. (302° C.) with the mold at 150° C. in a BOY 30M injection molder. The plaques obtained are measured for yellowness index (YI) values using ASTM D1925-70.

For `CC(C)(C)c1cc(C(C)(C)C)c2op(OCCN(CCOp3oc4c(C(C)(C)C)cc(C(C)(C)C)cc4c4cc(C(C)(C)C)cc(C(C)(C)C)c4o3)CCOp3oc4c(C(C)(C)C)cc(C(C)(C)C)cc4c4cc(C(C)(C)C)cc(C(C)(C)C)c4o3)oc3c(C(C)(C)C)cc(C(C)(C)C)cc3c2c1` [Example 1, 2,2',2"-nitrilo[triethyl-tris-(3,3',5,5'-tetra-tert-butyl-1,1'-biphenyl-2,2'-diyl)phosphite]], the “Bulk Density” value [1] was 0.49 g/mL, the “stabilizing polypropylene against thermal and oxidative degradation (change in melt flow rate)” value [2] was “equal or more effective” and the “stabilizing polypropylene against discoloration (change in yellowness index)” value [3] was “equal or more effective”. For the same molecule, the “induction time till crosslinking occurs” value [4] was “longer induction time”, the “discoloration of foam (visual inspection)” value [5] was “less discolored” and the scorch protection [5] was “better scorch protection”. For the same molecule, the “yellowness index (YI)” value [6] was “lower YI values”, the “retention of intrinsic viscosity value” [7] was “better retention of intrinsic viscosity value” and the “yellowness index (YI)” value [8] was “lower YI values (less discoloration)”.
